Data: US10336792B2, “Antimicrobial peptide dendrimers” (priority 2014, dated 2019)
In brackets after ≈: the same amount, converted by molar mass. Positions of bridges follow the written chain, without caps; N, C: chain ends. Non-standard residues stand in square brackets, D forms with d. Residues, ends and D or L forms follow the SMILES beside them. Groups on a side chain read outwards from the residue. Chains are numbered I, II in the order given.

Legend:
[1] = tested on: Pseudomonas aeruginosa (strain PA01); assay: microbe, parasite or virus in culture; assay type: cell-based; conditions: strain
In short: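 P. aeruginosa PAO1 grown overnight in LB, diluted to OD600 0.001 and mixed with ⅔-step peptide dilutions, then incubated at 37 °C for 18–24 h. After MTT staining, the lowest concentration with no visible growth was read by eye as the MIC.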

male wistar rats = assay: In-vivo toxicity study, single i.v. injection; parameters: species or system rat
Description: 4-6 weeks old male wistar rats (weight range 200-500 g) were used in toxicity experiments. Rats were obtained from Zentrale Tierställe Bern (Department of Clinical Research from University of Bern) and housed 4 per cage. Each experimental group includes two rats. All procedures, care and handling of the animals were reviewed and approved by the Veterinärdienst of Kanton Bern, Schweiz and execute in collaboration with the group of Prof. Hugues Abriel from Department of Clinical Research from University of Bern.
Rats were anesthetized with 4% isoflurane and 1 L/min oxygen in an induction chamber. When the rats were sleeping they were transferred on a clinical drape and anesthetized with 1-2% isoflurane and 0.8 l/min oxygen via a mask. The tail was warmed up with warm water and disinfected with 70% ethanol. The intravenous (i.v.) injections into the tail vein included a single dose of the AMPD of 2 mg/kg rat in 500 μL PBS. Before injection each rat was weighted individually and the exact dosage was determined. All rats, including control groups with no injection and i.v. injection of 500 μL PBS, were monitored for their survival and behavior for two days.
The compounds MSt-112, a 3rd generation AMPD with KL motive, MSt-181 its D-enantiomer analogue, MSt-242, a the 3rd generation with RL motive, and MSt-114 with Tyr instead of Lys in the 3rd generation were used for in vivo experiments with male wistar rats to assess their toxicity. These compounds were selected due to their high potencies and high MHCs values, which are at least 10 times higher than their activities. Each compound (concentration of 2 mg/kg) was applied to two rats by intravenous injection into the tail vein to observe if the AMPDs are well tolerated or may cause adverse effects. The concentration used was approx. 5-10 times higher than the MICs. […] The behaviour of the rats was normal. […] Therefore it seems that rats tolerate AMPDs very well, without visible site effects or even casualties.

[2] = tested on: Escherichia coli (strain DH5α); assay type: cell-based; conditions: DH5α
In short: (§1)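 Broth microdilution MIC in LB; overnight cultures diluted to OD600 0.001 and mixed 1:1 with ⅔-serially diluted samples (stock 1 mg mL^−1 in H2O), 37° C for 18-24 h. MTT (0.1%) added; MIC read by eye as lowest concentration inhibiting visible growth (yellow).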

[3] = tested on: Bacillus subtilis (strain BR151); assay type: cell-based; conditions: strain BR151
In short: as §1

CC(C)C[C@@H](NC(=O)[C@@H](CCCCN)NC(=O)[C@@H](CCCCNC(=O)[C@@H](CC(C)C)NC(=O)[C@@H](CCCCN)NC(=O)[C@@H](CCCCNC(=O)[C@@H](CC(C)C)NC(=O)[C@@H](CCCCN)NC(=O)[C@@H](CCCCNC(=O)[C@@H](CC(C)C)NC(=O)[C@H](N)CCCCN)NC(=O)[C@@H](CC(C)C)NC(=O)[C@H](N)CCCCN)NC(=O)[C@@H](CC(C)C)NC(=O)[C@@H](CCCCN)NC(=O)[C@@H](CCCCNC(=O)[C@@H](CC(C)C)NC(=O)[C@H](N)CCCCN)NC(=O)[C@@H](CC(C)C)NC(=O)[C@H](N)CCCCN)NC(=O)[C@@H](CC(C)C)NC(=O)[C@@H](CCCCN)NC(=O)[C@@H](CCCCNC(=O)[C@@H](CC(C)C)NC(=O)[C@@H](CCCCN)NC(=O)[C@@H](CCCCNC(=O)[C@@H](CC(C)C)NC(=O)[C@H](N)CCCCN)NC(=O)[C@@H](CC(C)C)NC(=O)[C@H](N)CCCCN)NC(=O)[C@@H](CC(C)C)NC(=O)[C@@H](CCCCN)NC(=O)[C@@H](CCCCNC(=O)[C@@H](CC(C)C)NC(=O)[C@H](N)CCCCN)NC(=O)[C@@H](CC(C)C)NC(=O)[C@H](N)CCCCN)C(N)=O [MSt-181, (kl)8(kkl)4(kkl)2(kkl)] (I: H-[dK][dL][dK]([dL-dK])[dK][dL][dK][dK][dL][dK][dK][dL]-NH2 / II: H-[dK][dL][dK]([dL-dK])[dK][dL][dK][dK][dL] / III: H-[dK][dL][dK]([dL-dK])[dK][dL] / IV: H-[dK][dL][dK]([dL-dK])[dK][dL]; amide I:6-IV:C, I:9-II:C, II:6-III:C)
MIC P. aeruginosa PAO1 [1]: 4 µg/mL (≈ 0.882 µM) | visible effects and behaviour after injection (male wistar rats; 2 mg/kg single i.v. dose into tail vein, two rats): slightly bluish extremities which subsided after approx. 5 min | survival rate (male wistar rats; 2 mg/kg single i.v. dose, monitored 2 days): 100% | MIC E. coli DH5α [2]: 1 µg/mL (≈ 0.221 µM) | MIC B. subtilis BR151 [3]: 2 µg/mL (≈ 0.441 µM)
